According to ChEMBL document CHEMBL2311455, “Combining QSAR classification models for predictive modeling of human monoamine oxidase inhibitors” (Eur J Med Chem, 2013):

Key:
Homo sapiens = species: Homo sapiens; assay: Selectivity index, difference in pIC50 for human recombinant MAOB and pIC50 for human recombinant MAOA
[1] = target: T1, Amine oxidase [flavin-containing] B (Homo sapiens, UniProt P27338); assay: Inhibition of human recombinant MAOB
T1 sequence (P27338 whole entry): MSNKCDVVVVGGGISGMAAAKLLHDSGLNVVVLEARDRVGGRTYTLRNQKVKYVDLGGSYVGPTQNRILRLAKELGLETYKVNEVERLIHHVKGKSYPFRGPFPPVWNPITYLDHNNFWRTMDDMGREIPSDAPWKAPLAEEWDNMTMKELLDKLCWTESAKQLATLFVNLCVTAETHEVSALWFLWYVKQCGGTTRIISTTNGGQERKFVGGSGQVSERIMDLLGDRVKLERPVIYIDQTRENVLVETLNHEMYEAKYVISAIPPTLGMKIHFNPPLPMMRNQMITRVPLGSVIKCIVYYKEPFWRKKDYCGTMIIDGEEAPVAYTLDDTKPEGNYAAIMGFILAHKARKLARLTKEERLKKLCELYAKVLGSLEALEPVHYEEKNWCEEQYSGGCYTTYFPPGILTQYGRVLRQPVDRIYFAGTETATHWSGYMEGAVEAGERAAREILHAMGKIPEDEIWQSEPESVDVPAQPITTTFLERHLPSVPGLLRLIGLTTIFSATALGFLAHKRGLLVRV

[2] = target: T2, Amine oxidase [flavin-containing] A (Homo sapiens, UniProt P21397); assay: Inhibition of human recombinant MAOA
T2 sequence (P21397 whole entry): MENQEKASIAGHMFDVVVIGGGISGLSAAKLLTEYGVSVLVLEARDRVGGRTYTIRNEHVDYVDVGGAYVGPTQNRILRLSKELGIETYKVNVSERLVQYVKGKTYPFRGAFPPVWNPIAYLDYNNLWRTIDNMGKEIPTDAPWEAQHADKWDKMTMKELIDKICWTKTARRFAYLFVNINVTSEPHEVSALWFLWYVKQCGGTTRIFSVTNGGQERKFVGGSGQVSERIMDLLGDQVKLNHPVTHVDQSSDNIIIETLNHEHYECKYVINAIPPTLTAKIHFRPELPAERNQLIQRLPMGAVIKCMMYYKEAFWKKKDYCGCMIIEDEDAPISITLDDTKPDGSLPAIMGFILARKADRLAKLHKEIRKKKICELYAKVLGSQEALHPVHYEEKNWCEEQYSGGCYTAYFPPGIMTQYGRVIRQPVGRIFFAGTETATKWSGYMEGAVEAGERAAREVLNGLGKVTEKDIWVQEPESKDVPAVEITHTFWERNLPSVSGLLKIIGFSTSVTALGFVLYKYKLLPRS

SMILES | pSI (Homo sapiens) | IC50 [1] [µM] | IC50 [2] [µM]
O=C(O)c1cc(=O)c2cc(Cl)ccc2o1 | < -1 | > 1000 | > 100
O=C(Nc1ccc(O)c(O)c1)c1cc(=O)c2ccccc2o1 | -1.15 |  | 
O=C(O)c1coc2ccc(Cl)cc2c1=O | < -1 | > 1000 | > 100
CN(C(=O)c1cc(=O)c2ccccc2o1)c1ccccc1 | 0 | > 100 | > 100

More lines, now with the values ahead:

pSI (Homo sapiens) | IC50 [1] [µM] | IC50 [2] [µM] | SMILES
> 0.45 | 35.5 | > 100 | CCCOC(=O)c1cc(=O)c2ccccc2o1
0 | > 100 | > 100 | CCOC(=O)c1cc(=O)c2ccccc2o1
> 1.25 | 5.62 | > 100 | CCCOC(=O)c1coc2ccccc2c1=O
> 0.42 | 38 | > 100 | O=c1c(CO)coc2ccccc12
0 | > 100 | > 100 | O=c1cc(CO)oc2ccccc12
> 1.72 | 1.91 | > 100 | CCOC(=O)c1coc2ccccc2c1=O
> 0.41 | 38.9 | > 100 | CCOC(=O)c1cc(=O)c2cc(Cl)ccc2o1
